Measurements as given in ChEMBL document CHEMBL1811841 (Bioorg Med Chem, 2011).

biological target: T1, Melatonin receptor type 1A (Homo sapiens, UniProt P48039); assay: Displacement of 2-[125I]iodomelatonin from human cloned MT1 receptor expressed in mouse NIH-3T3 cell membrane; type: cell membranes, NIH3T3; conditions: not given
T1 sequence (P48039 whole entry): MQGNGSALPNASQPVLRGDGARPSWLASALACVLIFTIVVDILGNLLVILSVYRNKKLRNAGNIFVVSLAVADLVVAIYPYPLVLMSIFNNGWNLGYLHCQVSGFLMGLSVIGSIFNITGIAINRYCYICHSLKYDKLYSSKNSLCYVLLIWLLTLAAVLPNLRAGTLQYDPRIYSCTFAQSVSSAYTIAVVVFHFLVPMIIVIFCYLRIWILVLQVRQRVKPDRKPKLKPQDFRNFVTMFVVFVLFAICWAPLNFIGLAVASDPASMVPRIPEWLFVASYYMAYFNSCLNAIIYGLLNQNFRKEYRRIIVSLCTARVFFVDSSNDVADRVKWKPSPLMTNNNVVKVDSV

| SMILES | Ki |
| --- | --- |
| CC(=O)NCCN(C)c1cccc(OCCCCCCCCOc2cccc(N(C)CCNC(C)=O)c2)c1 | 20 nM |
| COc1cccc(N(CCCCCCN(CCNC(C)=O)c2cccc(OC)c2)CCNC(C)=O)c1 | 741 nM |
| COc1cccc(N(CCCCCCCCCCN(CCNC(C)=O)c2cccc(OC)c2)CCNC(C)=O)c1 | 380 nM |
| CC(=O)NCCN(C)c1cccc(OCCCCOc2cccc(N(C)CCNC(C)=O)c2)c1 | 42.7 nM |
| CC(=O)NCCN(C)c1cccc(OCCCOc2cccc(N(C)CCNC(C)=O)c2)c1 | 20.4 nM |
| CC(=O)NCCN(C)c1cccc(OCCCCCCCCCCOc2cccc(N(C)CCNC(C)=O)c2)c1 | 3.98 nM |

Further molecules by falling Ki, results first:

| Ki | SMILES |
| --- | --- |
| 288 nM | COc1cccc(N(CCNC(C)=O)C(=O)CCCCC(=O)N(CCNC(C)=O)c2cccc(OC)c2)c1 |
| 57.5 nM | CC(=O)NCCN(C)c1cccc(OCCCCCOc2cccc(N(C)CCNC(C)=O)c2)c1 |
| 14.5 nM | CC(=O)NCCN(C)c1cccc(OCCCCCCOc2ccccc2)c1 |
| 3.39 nM | CC(=O)NCCN(C)c1cccc(OCCCCCCOc2cccc(N(C)CCNC(C)=O)c2)c1 |

biological target: T2, Melatonin receptor type 1B (Homo sapiens, UniProt P49286); assay: Displacement of 2-[125I]iodomelatonin from human cloned MT2 receptor expressed in mouse NIH-3T3 cell membrane; type: cell membranes, NIH3T3; conditions: not given
T2 sequence (P49286 whole entry): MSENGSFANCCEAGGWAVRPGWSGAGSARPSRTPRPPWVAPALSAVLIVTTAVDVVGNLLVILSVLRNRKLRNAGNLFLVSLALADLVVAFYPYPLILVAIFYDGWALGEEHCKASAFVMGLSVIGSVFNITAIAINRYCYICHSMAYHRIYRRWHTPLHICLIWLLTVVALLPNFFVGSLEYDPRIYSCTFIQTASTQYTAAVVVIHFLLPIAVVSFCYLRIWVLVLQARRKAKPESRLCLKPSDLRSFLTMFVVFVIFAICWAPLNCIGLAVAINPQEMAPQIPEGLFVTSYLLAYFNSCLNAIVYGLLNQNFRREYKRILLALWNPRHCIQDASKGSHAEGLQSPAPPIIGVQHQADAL

| SMILES | Ki |
| --- | --- |
| CC(=O)NCCN(C)c1cccc(OCCCCCCCCOc2cccc(N(C)CCNC(C)=O)c2)c1 | 93.3 nM |
| COc1cccc(N(CCCCCCN(CCNC(C)=O)c2cccc(OC)c2)CCNC(C)=O)c1 | 36.3 nM |
| COc1cccc(N(CCCCCCCCCCN(CCNC(C)=O)c2cccc(OC)c2)CCNC(C)=O)c1 | 309 nM |
| CC(=O)NCCN(C)c1cccc(OCCCCOc2cccc(N(C)CCNC(C)=O)c2)c1 | 1000 nM |
| CC(=O)NCCN(C)c1cccc(OCCCOc2cccc(N(C)CCNC(C)=O)c2)c1 | 2090 nM |
| CC(=O)NCCN(C)c1cccc(OCCCCCCCCCCOc2cccc(N(C)CCNC(C)=O)c2)c1 | 40.7 nM |

Further lines, results first:

| Ki | SMILES |
| --- | --- |
| 245 nM | COc1cccc(N(CCNC(C)=O)C(=O)CCCCC(=O)N(CCNC(C)=O)c2cccc(OC)c2)c1 |
| 813 nM | CC(=O)NCCN(C)c1cccc(OCCCCCOc2cccc(N(C)CCNC(C)=O)c2)c1 |
| 158 nM | CC(=O)NCCN(C)c1cccc(OCCCCCCOc2ccccc2)c1 |
| 182 nM | CC(=O)NCCN(C)c1cccc(OCCCCCCOc2cccc(N(C)CCNC(C)=O)c2)c1 |

species: Homo sapiens; assay: Selectivity index, ratio of Ki for human cloned MT2 receptor to Ki for human cloned MT1 receptor; conditions: not given

| SMILES | Ratio Ki |
| --- | --- |
| CC(=O)NCCN(C)c1cccc(OCCCCCCCCOc2cccc(N(C)CCNC(C)=O)c2)c1 | 4.7 |
| COc1cccc(N(CCCCCCN(CCNC(C)=O)c2cccc(OC)c2)CCNC(C)=O)c1 | 0.05 |
| COc1cccc(N(CCCCCCCCCCN(CCNC(C)=O)c2cccc(OC)c2)CCNC(C)=O)c1 | 0.8 |
| CC(=O)NCCN(C)c1cccc(OCCCCOc2cccc(N(C)CCNC(C)=O)c2)c1 | 23 |
| CC(=O)NCCN(C)c1cccc(OCCCOc2cccc(N(C)CCNC(C)=O)c2)c1 | 102 |
| CC(=O)NCCN(C)c1cccc(OCCCCCCCCCCOc2cccc(N(C)CCNC(C)=O)c2)c1 | 10 |

Other lines, results leading:

| Ratio Ki | SMILES |
| --- | --- |
| 0.85 | COc1cccc(N(CCNC(C)=O)C(=O)CCCCC(=O)N(CCNC(C)=O)c2cccc(OC)c2)c1 |
| 14 | CC(=O)NCCN(C)c1cccc(OCCCCCOc2cccc(N(C)CCNC(C)=O)c2)c1 |
| 11 | CC(=O)NCCN(C)c1cccc(OCCCCCCOc2ccccc2)c1 |
| 54 | CC(=O)NCCN(C)c1cccc(OCCCCCCOc2cccc(N(C)CCNC(C)=O)c2)c1 |

biological target: T1, Melatonin receptor type 1A; assay: Intrinsic activity at human cloned MT1 receptor expressed in mouse NIH-3T3 cells assessed as stimulation of [35S]GTPgammaS binding relative to melatonin; type: functional, cell-based; conditions: NIH3T3

| SMILES | Intrinsic activity |
| --- | --- |
| CC(=O)NCCN(C)c1cccc(OCCCCCCCCOc2cccc(N(C)CCNC(C)=O)c2)c1 | 0.47 |
| COc1cccc(N(CCCCCCN(CCNC(C)=O)c2cccc(OC)c2)CCNC(C)=O)c1 | -0.04 |
| COc1cccc(N(CCCCCCCCCCN(CCNC(C)=O)c2cccc(OC)c2)CCNC(C)=O)c1 | 0.12 |
| CC(=O)NCCN(C)c1cccc(OCCCCOc2cccc(N(C)CCNC(C)=O)c2)c1 | 0.21 |
| CC(=O)NCCN(C)c1cccc(OCCCOc2cccc(N(C)CCNC(C)=O)c2)c1 | 0.26 |
| CC(=O)NCCN(C)c1cccc(OCCCCCCCCCCOc2cccc(N(C)CCNC(C)=O)c2)c1 | 0.42 |

Next, values leading:

| Intrinsic activity | SMILES |
| --- | --- |
| 0.94 | COc1cccc(N(CCNC(C)=O)C(=O)CCCCC(=O)N(CCNC(C)=O)c2cccc(OC)c2)c1 |
| 0.46 | CC(=O)NCCN(C)c1cccc(OCCCCCOc2cccc(N(C)CCNC(C)=O)c2)c1 |
| 0.49 | CC(=O)NCCN(C)c1cccc(OCCCCCCOc2ccccc2)c1 |
| 0.44 | CC(=O)NCCN(C)c1cccc(OCCCCCCOc2cccc(N(C)CCNC(C)=O)c2)c1 |

biological target: T3, Melatonin receptor type 1B (Homo sapiens) (UniProt P49286); assay: Intrinsic activity at human cloned MT2 receptor expressed in mouse NIH-3T3 cells assessed as stimulation of [35S]GTPgammaS binding relative to melatonin; type: functional, cell-based; conditions: NIH3T3
T3 sequence (whole entry): T2 sequence (P49286 whole entry)

| SMILES | Intrinsic activity |
| --- | --- |
| CC(=O)NCCN(C)c1cccc(OCCCCCCCCOc2cccc(N(C)CCNC(C)=O)c2)c1 | 0.38 |
| COc1cccc(N(CCCCCCN(CCNC(C)=O)c2cccc(OC)c2)CCNC(C)=O)c1 | -0.09 |
| COc1cccc(N(CCCCCCCCCCN(CCNC(C)=O)c2cccc(OC)c2)CCNC(C)=O)c1 | 0.37 |
| CC(=O)NCCN(C)c1cccc(OCCCCOc2cccc(N(C)CCNC(C)=O)c2)c1 | 0.18 |
| CC(=O)NCCN(C)c1cccc(OCCCOc2cccc(N(C)CCNC(C)=O)c2)c1 | 0.33 |
| CC(=O)NCCN(C)c1cccc(OCCCCCCCCCCOc2cccc(N(C)CCNC(C)=O)c2)c1 | 0.57 |

Next, values leading:

| Intrinsic activity | SMILES |
| --- | --- |
| 0.91 | COc1cccc(N(CCNC(C)=O)C(=O)CCCCC(=O)N(CCNC(C)=O)c2cccc(OC)c2)c1 |
| 0.64 | CC(=O)NCCN(C)c1cccc(OCCCCCOc2cccc(N(C)CCNC(C)=O)c2)c1 |
| 0.54 | CC(=O)NCCN(C)c1cccc(OCCCCCCOc2ccccc2)c1 |
| 0.33 | CC(=O)NCCN(C)c1cccc(OCCCCCCOc2cccc(N(C)CCNC(C)=O)c2)c1 |
